For series [1], the target named is N. gonorrhea RNase P (M1 RNA + C5 protein) (Neisseria gonorrhoeae, UniProt Q5F4W3). Description: Time resolved fluorescence (TRF) RNase P inhibition assay. It counts as biochemical. Particulars: 30 min enzyme reaction, ptGLN substrate. From the text: The ability of compounds of the invention to inhibit RNase P enzymes can be assessed by standard techniques. For example, the cleavage of ptRNA^Gln by the enzyme N. Gonorrhea RNase P, can be monitored in the presence and absence of a candidate compound as described in the Example 15. The progress of the RNase P-mediated cleavage reaction can be assessed by measuring the […] hybridized to the cleaved substrate.
Time Resolved Fluorescence RNase P Inhibition Assay
96-well Nunc MaxiSorp FluoroNunc plates were coated with 50 μl/well of 1 μg/ml of streptavidin in base buffer (150 mM KCl, 5 mM MgCl2, 50 mM Tris, pH 7.6) and incubated overnight. The plates were washed using TRF.96 protocol, and then blocked with 150 μl of a 1 mg/ml BSA solution in base buffer and incubated with shaking for sixty minutes. The plates were then washed twice with base buffer plus 0.01% Tween20. 50 μl of 40 nM T17-bt (biotinylated DNA oligonucleotide complementary to the RNaseP substrate leader sequence used to capture intact RNaseP substrate) was then added to all wells, and the plates were incubated with shaking for 1 hr.
A 0.4 nM solution of N. gonorrhea M1 RNA was made from a 1 μM stock solution. A 0.5 nM solution of N. gonorrhea C5 protein is made by diluting a 10 μM stock. ΔUL-ptGLN UTP-bt (10 μM stock) was diluted into PA buffer for a concentration of 40 nM.
Compounds were serially diluted in DMSO from 20 mM stocks to 6, 2, 0.6, 0.2, and 0.06 mM dilutions. These titrations were then diluted (2 μl to 100) in PA buffer, and 12.5 μl of each concentration was added in duplicate to a 96-well V-bottom polypropylene plate. The highest concentration was put in row G and the lowest in row B. Rows A & H received 12.5 μl of DMSO/PA buffer.
The enzyme reaction was initiated in the V-bottom polypropylene plates containing compound dilutions by adding 12.5 μl of the N. gonorrhea M1 solution to rows A-G. PA buffer was added to row H. 12.5 μl of the C5 solution was added similarly to the M1 solutions. 12.5 μl of the substrate solution was then added to all wells. The plates were incubated for 30 minutes at which time 12.5 μl of stop buffer was added to all wells. (Stop buffer: 500 μg/ml polyC/50 nM SA-Eu in 335 mM MgCl2 PA buffer).
The T17-biotin-coated plate was washed three times, and 37.5 μl of 75 mM MgCl2 PA buffer was added to each well. After 30 minutes incubation with the stop buffer, 12.5 μl from all of the enzyme reaction wells was transferred to the T17 plates. The plates were then incubated for 1.5 hr at room temperature with shaking. The plates were washed three times and 40 μl of Delfia enhancement solution (Wallac Oy) was added to all wells. The plates were then read on the Victor 2 plate reader.

The target of series [2] is T1, N. gonorrhoeae RNase P holoenzyme (Neisseria gonorrhoeae, UniProt Q5F4W3).
T1 sequence (Q5F4W3 1-121): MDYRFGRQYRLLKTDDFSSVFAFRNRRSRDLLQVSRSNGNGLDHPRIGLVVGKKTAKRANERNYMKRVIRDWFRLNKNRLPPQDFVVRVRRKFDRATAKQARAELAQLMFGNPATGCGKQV
Description: biochemical. Particulars: 32P-labelled pGln substrate, room temperature; read-out: N. gonorrhoeae Gel assay IC50(μM) (Example 16). The procedure:
RNase P Inhibition Polyacrylamide Gel Assay
The substrate, the precursor of tRNA^Gln, (pGln), from Synechocystis (Pascual and Vioque, 1999), was synthesized in vitro from the corresponding cDNA by T7 RNA polymerase in the presence of α^32P-GTP. Each control RNase P reaction of 10 μl contained 50 mM Tris-HCl (pH 7.8), 10 mM MgCl2, 100 mM NH4Cl, 1 mM dithiothreitol, and 0.4-1.0 pmol pGln substrate, radiolabeled to a specific activity of 1000-10,000 cpm/pmol. The reaction mixture, containing 0.1-1 nM holoenzyme, was incubated for 5-60 min at room temperature (18-24° C.), and the reaction was terminated by addition of an equal volume of 40 mM EDTA/8 M urea. The samples were electrophoresed in denaturing 8% polyacrylamide gels. The activity was quantified by exposure of the gel to a phosphorimaging screen. For test reactions that require the addition of compounds, the RNA subunits were pre-incubated with compound for 10 min at room temperature in the presence of buffer, followed by addition of the protein subunit. After a further 10 minutes of incubation, the radiolabeled substrate was added, and the reaction initiated. Products were analyzed as just described. The IC50 was the concentration of compound that was required to inhibit RNase P activity by 50%.

Series [3] is described as follows: Cellular toxicity assay (MTS) on PBMC. Type of series: cell-based, human. Particulars: human, peripheral blood mononuclear cells (PBMC); 24 hours incubation, MTS reagent; read-out: PBMC's TC50. On the procedure: Compounds of the invention (see Table 6) were assayed for cellular toxicity as follows. Whole blood was drawn from a volunteer, and the red cells were separated from the buffy coat cells by centrifugation over ficoll-paque. The resulting peripheral blood mononuclear cells (PBMC) were collected from the interface and washed extensively with PBS by centrifugation to remove platelets and cellular debris. The cells were then plated in 96-well tissue culture plates at a density of 5×10^5 cells per mL at 200 μL per well. After an hour incubation, the candidate compounds were added at the appropriate concentrations diluted from DMSO stocks into assay buffer (RPMI medium supplemented with 10% FCS). The cells were incubated at 37° C., 100% humidity and 5% CO2 for 24 hours at which time MTS reagent was added per the manufacturer's (Promega) instructions. After 2-3 hours incubation the optical density of the wells was read on a spectrophotometer. […] The data are evaluated using equation 2 as described in Example 17, where bacterial cells are replaced by PBMC cells in the measurements. The data describes the toxicity of these compounds to a representative human cell population (PBMC's).

For the next series, the system named is N. gonorrhoeae. Description: Bacterial inhibition assay (growth, MTS readout). It counts as cell-based. To be noted: CAMHB-3% LHB medium, 35° C., 5% CO2, 24 hours. On the procedure: (§1) Compounds of the invention (see Table 5) were assayed for their ability to inhibit bacterial growth. Compounds were diluted from 10 mM DMSO stocks to 3 mM and 1 mM in DMSO. The compounds were further diluted from these stocks into saline for 200, 120, and 20 μM stocks. Control antibiotics were diluted similarly. Overnight cultures of bacteria were made in the following manner. N. gonorrhea was streaked onto a chocolate agar plate and incubated at 35° C./5% CO2. Rather than make an overnight culture of S. pyogenes, a loopful of S. pyogenes from a blood plate or a stock plate was used the following day for direct cell suspension.
(§2) On the following day bacteria were prepared by dilution into saline with O.D. […] readings taken to determine the concentration of the bacteria. CFUs (colony forming units) were determined using the formula: CFU/mL=OD625×(1.5×10^8 CFU/mL/OD McFarland std)×dilution. The four bacterial cultures were diluted initially to 5.5×10^7 CFU/mL. The bacteria were then further diluted into medium to 5.5×10^5 CFU/mL for S. pyogenes and 5.5×10^6 CFU/mL for N. gonorrhea. S. pyogenes and N. gonorrhea were grown in CAMHB-3% LHB medium. The bacteria were added one per plate at 200 μL per well. Compounds were added in 10 μL aliquots for final concentrations of 10, 3, and 1 μM in duplicate. Control antibiotics, penicillin for S. pyogenes and ciprofloxacin for N. gonorrhea, were added from 0.8 mg/ml to 0.003 mg/ml. Plates were incubated at 35° C. with O2 for 16-20 hours for S. pyogenes, and read at OD665 in a Victor2 plate reader. Plates were incubated at 35° C. with 5% CO2 for 24 hours for N. gonorrhea at which time 40 μL of MTS reagent is added per well and incubated for 1 hour in same incubator. The plates were read at OD490. Compounds were tested at 1 μM, 3 μM, and 10 μM concentrations. The results, which are expressed as a percentage of the control, were calculated using equation 2. In this equation, O.D. is optical density; (O.D. compounds+bacteria) is the optical density observed for bacteria grown in the presence of a compound of the invention; (O.D. blank) is the optical density in the absence of bacteria; and (O.D. bacteria) is the optical density observed for bacteria growing uninhibited. Other RNase P inhibitors may be tested similarly using any bacteria of interest. [formula]

The test system of the next series is S. pyogenes. Description: Bacterial inhibition assay (growth, OD readout). It counts as cell-based. Particulars: CAMHB-3% LHB medium, 35° C., 16-20 hours. The procedure:
as §1, §2

[4] abbreviates: read-out: N. gonorrhoeae TRF IC50(μM) (Example 15).

Values after ≈ are worked out from the molar mass of the structure shown. Values joined by “and” are separate entries in the source; they are usually repeats but may differ in a detail not shown here. Equal entries are not always repeated. Where two headings read alike, the source gives them in different places.

Take `CC(=NNC(=N)N)c1cccc(NC(=O)c2cccc(-c3ccccc3)c2)c1` [MES 10915, Guanylhydrazone of N-(3-acetylphenyl)-3-biphenylcarboxamide]: the IC50 in series [1] (N. gonorrhoeae TRF IC50(μM) (Example 15)) was 16 µM; in series [2], 10 µM.
As for `CC(=NNC(=N)N)c1cccc(NC(=O)c2ccc(-c3ccccc3)cc2)c1` [MES 10938, Guanylhydrazone of N-(3-acetylphenyl)-4-biphenylcarboxamide], the half-inhibitory concentration (IC50) in series [1] (setting [4]) stood at 80 µM.
As to `CC(=NNC(=N)N)c1cccc(NC(=O)[C@@H]2CCCN2C(=O)c2cccc(C(C)=NNC(=N)N)c2)c1` [MES 10926, Bisguanylhydrazone of (S)-1-(3-acetylbenzoyl)-N-(3-acetylphenyl) prolinamide], in series [3], the CC50 at 24 h is > 100 µM. Besides, the MIC was determined as 80 µM (≈ 39.2 µg/mL) in the series with N. gonorrhoeae (Neisseria gonorrhoeae) and 30 µM (≈ 14.7 µg/mL) with S. pyogenes (Streptococcus pyogenes). In addition, the IC50 in series [1] (setting [4]) was determined as 43 µM; in series [2], 100 µM.
Turning to `CC(=NNC(=N)N)c1cccc(NC(=O)[C@H](CCc2ccccc2)NC(=O)c2cccc(I)c2)c1` [MES 10914, Guanylhydrazone of (S)-1-(3-iodobenzoyl)-N-(3-acetylphenyl) homophenyl-alaninamide], in series [1] (setting [4]), the 50% inhibitory concentration (IC50) amounted to 6 µM.
Regarding `O=C(O)c1ccc(-c2ccc(/C=C3\S/C(=N\c4ccccc4)N(c4ccccc4)C3=O)o2)cc1` [MES 110430], the MIC in the series with N. gonorrhoeae is on record as 30 µM (≈ 14 µg/mL); with S. pyogenes, >100 µM. Also, the concentration for half-maximal inhibition (IC50) in series [1] (setting [4]) was 7 µM.
Regarding `CC(=NNC(=N)N)c1cccc(NC(=O)[C@H](Cc2ccc(-c3ccccc3)cc2)NC(=O)c2ccccc2)c1` [MES 10910, Guanylhydrazone of (S)-1-benzoyl-N-(3-acetylphenyl) biphenylalaninamide], in series [1] (setting [4]), the concentration for half-maximal inhibition (IC50) stood at 7 µM.
`CC(=NNC(=N)N)c1ccc(C(=O)Nc2cccc(C(C)=NNC(=N)N)c2)cc1` [MES 10648, Bisguanylhydrazone of 4-acetyl-N-(3-acetylphenyl)benzamide]: the CC50 at 24 h in series [3] is > 100 µM. For the same compound, the values for the minimum inhibitory concentration (MIC) in the series with N. gonorrhoeae (Neisseria gonorrhoeae) and in the series on S. pyogenes (Streptococcus pyogenes) were 10 µM (≈ 3.93 µg/mL) and 1 µM (≈ 0.393 µg/mL), respectively. Besides, the IC50 worked out at 5 µM in series [1] (setting [4]) and 2 µM in series [2].
For the compound `N=C1/C(=C/c2ccc(-c3ccc(C(=O)O)cc3)o2)C(=O)N=C2SC(Cc3cccs3)=NN12` [MES 110410], the minimal inhibitory concentration (MIC) in the series with N. gonorrhoeae is 30 µM (≈ 13.9 µg/mL); in the series with S. pyogenes, >100 µM. For the same compound, the half-maximal inhibitory concentration (IC50) in series [1] (setting [4]) came out at 15 µM.
As for `CC(=O)Oc1cccc2ccc(/C=C/c3ccc(C(=O)O)cc3)nc12` [MES 110394], in the series on N. gonorrhoeae, the MIC is listed as 10 µM (≈ 3.33 µg/mL). Also, in series [1] (setting [4]), the IC50 was determined as 9 µM. In addition, the “S. pyogenes MIC(μM)” value in the series on S. pyogenes is recorded as >100− μM.
Consider `O=C(O)c1ccc(-c2nc(-c3ccc(-c4nc(-c5ccc(C(=O)O)cc5)[nH]c4-c4ccccc4)cc3)c(-c3ccccc3)[nH]2)cc1` [MES 110417], for which the minimum inhibitory concentration (MIC) is 30 µM (≈ 18.1 µg/mL) against N. gonorrhoeae and >100 µM against S. pyogenes. Besides, in series [1] (setting [4]), the half-inhibitory concentration (IC50) turned out to be 10 µM.
In the case of `CC(=NNC(=N)N)c1cccc(NC(=O)[C@@H]2Cc3ccccc3CN2C(=O)c2cccc(C(C)=NNC(=N)N)c2)c1` [MES 10848, Bisguanylhydrazone of (S)-2-(3-acetylbenzoyl)-N-(3-acetylphenyl)tetrahydro-isoquinoline-3-carboxamide], the CC50 at 24 h in series [3] is > 100 µM. For the same compound, the results for the minimum inhibitory concentration (MIC) in the series with N. gonorrhoeae (Neisseria gonorrhoeae) and in the series on S. pyogenes (Streptococcus pyogenes) were 100 µM (≈ 55.3 µg/mL) and 10 µM (≈ 5.53 µg/mL), respectively. In addition, the concentration for half-maximal inhibition (IC50) in series [1] (setting [4]) came to 3 µM; in series [2] it was 6 µM.
As to `CC(=NNC(=N)N)c1ccc(NC(=O)c2ccc(C(C)=NNC(=N)N)cc2)cc1` [MES 10948, Bisguanylhydrazone of 4-acetyl-N-(4-acetylphenyl)benzamide], in series [3], the CC50 at 24 h was > 100 µM. For the same compound, the MIC with N. gonorrhoeae (Neisseria gonorrhoeae) was determined as 3 µM (≈ 1.18 µg/mL); against S. pyogenes (Streptococcus pyogenes) it was 0.3 µM (≈ 0.118 µg/mL). Moreover, the IC50 in series [1] (setting [4]) was 3 µM; in series [2], 2 µM and 1 µM.
With `N=C1/C(=C/c2ccc(-c3ccc(C(=O)O)cc3)o2)C(=O)N=C2SC(c3ccccc3)=NN12` [MES 110392], the minimal inhibitory concentration (MIC) is 100 µM (≈ 44.2 µg/mL) in the series with N. gonorrhoeae and >100 µM with S. pyogenes. Besides, the IC50 in series [1] (setting [4]) was determined as 2 µM.

A word on the IC50: it is the concentration at which inhibition is half-maximal. As a reminder, the MIC is the lowest concentration found to suppress growth.
